Assay results published in ChEMBL document CHEMBL4038312 (J Med Chem, 2017).
Converted amounts (≈) assume the structure as drawn. Blank lines part the entries; values can stand above or below the compound they belong to.

What was measured:
[1] = physchem; conditions: octanol/water, pH 7.4
[2] = physchem
[3] = Dissociation constant, pKa of the compound; assay type: physicochemical
[4] = Volume of distribution at steady state in rat at 1 mg/kg, iv; assay type: ADME, organism-based; conditions: in vivo, read-out: Vdss
[5] = AUC (0 to infinity) in rat at 3 mg/kg, po; assay type: ADME, organism-based; set-up: dose 3 mg/kg, time infinity, route oral; conditions: in vivo
[6] = Solubility of the compound at pH 6.5; assay type: physicochemical; conditions: buffer
[7] = Permeability in RRCK cells; assay type: ADME, cell-based, Canis lupus familiaris, MDCKII-LE; conditions: dog, MDCK; read-out: permeability
[8] = Volume of distribution at steady state in dog at 0.1 mg/kg, iv; assay type: ADME, organism-based, Canis lupus familiaris; conditions: in vivo, read-out: Vdss
[9] = Cmax in rat at 3 mg/kg, po; assay type: ADME, organism-based; set-up: dose 3 mg/kg, route oral; conditions: in vivo
[10] = Drug excretion in iv dosed bile duct cannulated rat bile after 6 hrs; assay type: ADME, organism-based; conditions: read-out: Drug excretion
[11] = in vivo; conditions: rat, po, 3 mg/kg
[12] = Cmax in dog at […], po; assay type: ADME, organism-based, Canis lupus familiaris; set-up: dose 0.13 mg/kg, route oral; conditions: in vivo
[13] = AUC (0 to infinity) in dog at […], po; assay type: ADME, organism-based, Canis lupus familiaris; set-up: dose 0.13 mg/kg, time infinity, route oral; conditions: in vivo
[14] = Oral bioavailability in dog at […]; assay type: ADME, organism-based, Canis lupus familiaris; conditions: in vivo
[15] = Apparent permeability from apical to basolateral side in MDCK cells harboring MDR1; assay type: ADME, cell-based, Canis lupus familiaris; conditions: dog
[16] = Apparent permeability from basolateral to apical side in MDCK cells harboring MDR1; assay type: ADME, cell-based, Canis lupus familiaris; conditions: dog
[17] = Cmax in dog at 3 mg/kg, po; assay type: ADME, organism-based, Canis lupus familiaris; set-up: dose 3 mg/kg, route oral; conditions: in vivo
[18] = Tmax in rat at 3 mg/kg, po; assay type: ADME, organism-based; conditions: in vivo
[19] = Tmax in dog at 3 mg/kg, po; assay type: ADME, organism-based, Canis lupus familiaris; conditions: in vivo
[20] = Volume of distribution at steady state in human at 100 ug, iv; assay type: ADME; conditions: in vivo, read-out: Vdss
[21] = Cmax in human at 100 ug, po; assay type: ADME; set-up: dose 100 ug, route oral; conditions: in vivo
[22] = Oral bioavailability in human at 100 ug; assay type: ADME, organism-based; conditions: in vivo
[23] = test system: Homo sapiens; assay: Unbound Cmax in human at 2400 mg, po; assay type: ADME; conditions: in vivo
[24] = Basic dissociation constant, pKa of the compound; assay type: physicochemical
[25] = Oral bioavailability in dog at 3 mg/kg; assay type: ADME, organism-based, Canis lupus familiaris; conditions: in vivo

logD [1]: 0.7
SMILES: N#Cc1cc(S(=O)(=O)Nc2ncns2)ccc1Oc1ccc(C(F)(F)F)cc1-c1cccnn1

logD [1]: 0.9
SMILES: N#Cc1cc(S(=O)(=O)Nc2ncns2)ccc1Oc1ccc(C(F)(F)F)cc1-c1ccncn1

pKa [2]: 4.5
SMILES: Cn1nccc1-c1cc(Cl)ccc1Oc1ccc(S(=O)(=O)Nc2nncs2)cc1C#N

pKa [3]: 5.6
logD [1]: 1.6
SMILES: O=S(=O)(Nc1cscn1)c1cc(Cl)c(Oc2ccc(C(F)(F)F)cc2-c2ccnnc2)cc1F

pKa [2]: 3.5
SMILES: Cn1nccc1-c1cc(Cl)ccc1Oc1ccc(S(=O)(=O)Nc2ncns2)cc1F

logD [1]: 1.6
SMILES: N#Cc1cc(S(=O)(=O)Nc2ncns2)ccc1Oc1ccc(Cl)cc1-c1ccn[nH]1

pKa [2]: 3.5
SMILES: Cn1nccc1-c1cc(Cl)ccc1Oc1ccc(S(=O)(=O)Nc2ncns2)cc1C#N

pKa [2]: 4.5
SMILES: Cn1nccc1-c1cc(Cl)ccc1Oc1cc(F)c(S(=O)(=O)Nc2nncs2)cc1Cl

logD [1]: 1.6
SMILES: N#Cc1cc(S(=O)(=O)Nc2ncns2)ccc1Oc1ccc(Cl)cc1-c1ccnc(N)c1

logD [1]: 1.6
SMILES: CCN1CC(n2nccc2-c2cc(Cl)ccc2Oc2cc(F)c(S(=O)(=O)Nc3cscn3)cc2F)C1

Vd [4]: 1.3 L/kg
AUC(0-inf) [5]: 0.005 µg·h/mL
solubility [6]: > 300 µM
Papp [7]: 7 nm/s
Vd [8]: 1.2 L/kg
Cmax [9]: 0.001 µg/mL
dose excreted at 6 h [10]: 73%
bioavailability [11]: < 1%
logD [1]: 0.7
SMILES: N#Cc1cc(S(=O)(=O)Nc2ncns2)ccc1Oc1ccc(C(F)(F)F)cc1-c1ccnnc1

logD [1]: 1
SMILES: N#Cc1cc(S(=O)(=O)Nc2ncns2)ccc1Oc1ccc(Cl)cc1-c1cn[nH]c1N

logD [1]: 1.3
SMILES: CN1CC(n2nccc2-c2cc(Cl)ccc2Oc2cc(F)c(S(=O)(=O)Nc3cscn3)cc2F)C1

Vd [4]: 2.3 L/kg
Cmax [12]: 0.018 µg/mL
solubility [6]: 259 µM (≈ 119 µg/mL)
Papp [7]: 21 nm/s
Vd [8]: 0.5 L/kg
AUC(0-inf) [13]: 0.04 µg·h/mL
bioavailability [14]: 23%
logD [1]: 1.7
pKa [2]: 3.5
SMILES: N#Cc1cc(S(=O)(=O)Nc2ncns2)ccc1Oc1ccc(Cl)cc1-c1cn[nH]c1

pKa [2]: 3.5
SMILES: Cn1nccc1-c1cc(Cl)ccc1Oc1cc(F)c(S(=O)(=O)Nc2ncns2)cc1F

logD [1]: 2.2
pKa [2]: 6.3
SMILES: Nc1n[nH]cc1-c1cc(C(F)(F)F)ccc1Oc1cc(F)c(S(=O)(=O)Nc2cscn2)cc1Cl

Vd [4]: 6.3 L/kg
AUC(0-inf) [5]: 0.026 µg·h/mL
solubility [6]: > 300 µM
Papp [7]: 11 nm/s
Vd [8]: 1.8 L/kg
Cmax [9]: 0.004 µg/mL
bioavailability [11]: < 5%
logD [1]: 2
pKa [2]: 3.5
SMILES: Cc1[nH]ncc1-c1cc(C(F)(F)F)ccc1Oc1ccc(S(=O)(=O)Nc2ncns2)cc1C#N

logD [1]: 1
SMILES: CN1CC(n2nccc2-c2cc(Cl)ccc2Oc2cc(F)c(S(=O)(=O)Nc3ncns3)cc2F)C1

solubility [6]: < 0.3 µM
Papp [7]: 38 nm/s
Papp A→B [15]: 7 nm/s
Papp B→A [16]: 63 nm/s
Vd [8]: 0.2 L/kg
Cmax [9]: 0.541 µg/mL
Cmax [17]: 0.998 µg/mL
Tmax [18]: 2 h
Tmax [19]: 0.9 h
Vd [20]: 0.15 L/kg
Cmax [21]: 0.011 µg/mL
bioavailability [22]: 110%
fCmax [23]: 226 nM
logD [1]: 2.3 to 2.6
pKa [2]: 6.3
SMILES: Nc1[nH]ncc1-c1cc(Cl)ccc1Oc1cc(F)c(S(=O)(=O)Nc2cscn2)cc1Cl [PF-05089771]

Vd [4]: 29.7 L/kg
solubility [6]: > 262 µM
Papp [7]: 32 nm/s
pKa [24]: 7.4
Papp A→B [15]: < 5 nm/s
Papp B→A [16]: 110 nm/s
Vd [8]: 0.9 L/kg
Cmax [9]: 0.0927 µg/mL
Tmax [18]: 0.3 h
Vd [20]: 0.41 L/kg
Cmax [21]: 0.00067 µg/mL
bioavailability [22]: 52%
bioavailability [11]: 68%
logD [1]: 1.4
pKa [2]: 6.5
SMILES: CCN1CC(n2nccc2-c2cc(Cl)ccc2Oc2ccc(S(=O)(=O)Nc3cscn3)cc2C#N)C1 [PF-05150122]

Vd [4]: 11 L/kg
solubility [6]: 286 µM (≈ 152 µg/mL)
Papp [7]: 7 nm/s
Papp A→B [15]: < 5 nm/s
Papp B→A [16]: 11 nm/s
Vd [8]: 0.5 L/kg
Cmax [9]: 0.0732 µg/mL
Cmax [17]: 2.89 µg/mL
bioavailability [25]: 54%
Tmax [18]: 1.5 h
Tmax [19]: 1.5 h
pKa [3]: 4
Vd [20]: 0.18 L/kg
Cmax [21]: 0.0048 µg/mL
bioavailability [22]: 101%
bioavailability [11]: 16%
logD [1]: 0.8 to 0.9
pKa [2]: 4.3
SMILES: O=S(=O)(Nc1nncs1)c1cc(Cl)c(Oc2ccc(C(F)(F)F)cc2-c2ccnnc2)cc1F [PF-05186462]
